Experimental data: ChEMBL document CHEMBL4265894, “Developing potential Helicobacter pylori urease inhibitors from novel oxoindoline derivatives: Synthesis, biological evaluation and in silico study” (Bioorg Med Chem Lett, 2018)
Values after ≈ are worked out from the molar mass of the structure shown.

Experiments:
Urease = Urease (Helicobacter pylori, UniProt Q0PXQ5); test: Inhibition of Helicobacter pylori urease after 50 mins by indophenol method
Helicobacter pylori = test: Antibacterial activity against Helicobacter pylori after 48 hrs; assay type: functional
[1] = Cytotoxicity against HEK293T cells after 24 hrs by MTT assay; assay type: cell-based, HEK-293T; details: human
[2] = Cytotoxicity against human LO2 cells after 24 hrs by MTT assay; assay type: cell-based, L02

Urease, sequence (Q0PXQ5 whole entry): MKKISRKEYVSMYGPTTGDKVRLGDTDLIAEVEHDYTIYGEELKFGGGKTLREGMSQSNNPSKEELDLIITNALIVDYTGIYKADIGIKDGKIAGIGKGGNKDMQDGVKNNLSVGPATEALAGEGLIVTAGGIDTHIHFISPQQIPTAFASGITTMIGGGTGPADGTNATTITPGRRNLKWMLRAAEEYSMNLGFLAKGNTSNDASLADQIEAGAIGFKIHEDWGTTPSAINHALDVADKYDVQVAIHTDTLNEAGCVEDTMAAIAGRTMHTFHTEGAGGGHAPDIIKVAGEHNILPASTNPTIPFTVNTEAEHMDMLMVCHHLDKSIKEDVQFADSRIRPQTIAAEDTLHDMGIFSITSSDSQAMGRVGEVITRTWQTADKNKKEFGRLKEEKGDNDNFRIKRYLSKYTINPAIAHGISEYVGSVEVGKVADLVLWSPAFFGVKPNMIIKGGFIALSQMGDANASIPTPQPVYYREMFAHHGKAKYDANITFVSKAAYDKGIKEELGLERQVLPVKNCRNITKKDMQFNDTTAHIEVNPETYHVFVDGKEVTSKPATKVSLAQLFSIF

SMILES | IC50 (Urease) | MIC (Helicobacter pylori) | GI50 at 24 h [1] | GI50 at 24 h [2]
COc1ccc(C(=O)N/N=C2/C(=O)N(CC=C(C)C)c3ccccc32)cc1F | 3.82 µM | 3.94 µM (≈ 1.5 µg/mL) | 169 µM | > 200 µM
CC(C)=CCN1C(=O)/C(=N/NC(=O)c2cc(C)cc(C)c2)c2ccccc21 | 4.38 µM | 6.75 µM (≈ 2.44 µg/mL) |  | 
CC(C)=CCN1C(=O)/C(=N/NC(=O)c2cccc(Cl)c2)c2ccccc21 | 38.1 µM | 72.5 µM (≈ 26.7 µg/mL) |  | 
CC(C)=CCN1C(=O)/C(=N/NC(=O)c2ccc(C(C)C)cc2)c2ccccc21 | 14.9 µM | 27.5 µM (≈ 10.3 µg/mL) |  | 
CC(C)=CCN1C(=O)/C(=N/NC(=O)c2ccc(Br)cc2)c2ccccc21 | 83.9 µM | 137 µM (≈ 56.5 µg/mL) |  | 
COc1cccc(C(=O)N/N=C2/C(=O)N(CC=C(C)C)c3ccccc32)c1 | 8.21 µM | 15.2 µM (≈ 5.52 µg/mL) |  | 
CC(C)=CCN1C(=O)/C(=N/NC(=O)c2ccc(C(F)(F)F)cc2)c2ccccc21 | 44.1 µM | 83.9 µM (≈ 33.7 µg/mL) |  | 
CC(C)=CCN1C(=O)/C(=N/Nc2ccccc2)c2ccccc21 | > 300 µM | > 200 µM | > 200 µM | > 200 µM
COc1cc(OC)cc(C(=O)N/N=C2/C(=O)N(CC=C(C)C)c3ccccc32)c1 | 1.35 µM | 1.96 µM (≈ 0.771 µg/mL) | 176 µM | 188 µM
CC(C)=CCN1C(=O)/C(=N/NC(=O)c2ccc(F)cc2)c2ccccc21 | 154 µM | > 200 µM | 195 µM | > 200 µM
COc1ccc(C(=O)N/N=C2/C(=O)N(CC=C(C)C)c3ccccc32)cc1 | 6.99 µM | 10.3 µM (≈ 3.74 µg/mL) |  | 
CC(C)=CCN1C(=O)/C(=N/NC(=O)c2ccc(C)cc2)c2ccccc21 | 29.9 µM | 58.1 µM (≈ 20.2 µg/mL) |  | 
COc1ccccc1C(=O)N/N=C1/C(=O)N(CC=C(C)C)c2ccccc21 | 11.7 µM | 19.5 µM (≈ 7.09 µg/mL) |  | 
CC(C)=CCN1C(=O)/C(=N/NC(=O)c2cccc(Br)c2)c2ccccc21 | 27.6 µM | 50.5 µM (≈ 20.8 µg/mL) |  | 
CC(C)=CCN1C(=O)/C(=N/NC(=O)c2ccc(C(C)(C)C)cc2)c2ccccc21 | 19.5 µM | 30.8 µM (≈ 12 µg/mL) |  | 
CC(C)=CCN1C(=O)/C(=N/NC(=O)c2ccccc2)c2ccccc21 | 129 µM | 171 µM (≈ 57 µg/mL) |  | 
CC(C)=CCN1C(=O)/C(=N/NC(=O)c2cccc(C(F)(F)F)c2)c2ccccc21 | 65.8 µM | 108 µM (≈ 43.3 µg/mL) |  | 
COc1ccc(C(=O)N/N=C2/C(=O)N(CC=C(C)C)c3ccccc32)cc1OC | 0.71 µM | 0.48 µM (≈ 0.189 µg/mL) | 184 µM | 178 µM
CC(C)=CCN1C(=O)/C(=N/NC(=O)c2ccc(Oc3ccccc3)cc2)c2ccccc21 | 22.7 µM | 41.8 µM (≈ 17.8 µg/mL) |  | 
CC(C)=CCN1C(=O)/C(=N/NC(=O)c2ccc(Cl)cc2)c2ccccc21 | 143 µM | 185 µM (≈ 68 µg/mL) | > 200 µM | > 200 µM
CC(=O)NO [ACETOHYDROXAMIC ACID] | 17.2 µM |  |  | 
Cc1ncc([N+](=O)[O-])n1CCO [METRONIDAZOLE] |  | 31.3 µM (≈ 5.36 µg/mL) |  | 
